Laboratory results as given in patent US6436956B1, “Useful form of anhydrous paroxetine hydrochloride” (Brantford Chemicals Inc., priority 1996, dated 2002).
Structures can show the parent of a compound that is named as a salt. Where two headings read alike, the source gives them in different places.

Key:
[1] = bulk density and tapped density of the solid; assay type: physicochemical
[2] = hygroscopicity / moisture uptake on exposure to open air; assay type: physicochemical
[3] = solid-form stability, conversion to the hemihydrate polymorph (DSC maximum of 143° C.); assay type: physicochemical
[4] = prior-art form, from literature; cited from earlier work
[5] = prior-art form, purported; cited from earlier work
[6] = Form IV as described in summary (material of Example 2)
[7] = material of Example 5 (methanol solution evaporated to foam, dried, pulverized)

With `Cl.Fc1ccc([C@@H]2CCNC[C@H]2COc2ccc3c(c2)OCO3)cc1` [Form IV, paroxetine hydrochloride (anhydrous)] the bulk density [1, 6] was “exceeding 0.6 g/mL”, the tapped density [1, 6] was “exceeding 0.9 g/mL” and the bulk density [1, 7] was “exceeding 0.43 g/mL”. The tapped density [1, 7] was over 0.58 g/mL, the hygroscopic nature [2] was “substantially non-hygroscopic” and the moisture taken on ([2]; exposed to open air for three days, ca. 50% relative humidity) was at most 1.5 % by weight. The stability [3] was “very stable” and the “rate of conversion to the hemihydrate polymorph” value ([3]; even in humid environments, DSC maximum of 143° C. as indicator) was “negligible rate”.

In the case of `Fc1ccc([C@@H]2CCNC[C@H]2COc2ccc3c(c2)OCO3)cc1` [anhydrous form, paroxetine hydrochloride], the hygroscopic nature [4] is listed as “hygroscopic”.

For `Fc1ccc([C@@H]2CCNC[C@H]2COc2ccc3c(c2)OCO3)cc1` [hemihydrate form, paroxetine hydrochloride hemihydrate], the stability [5] is given as “purportedly stable”.
